SMILES strings stand for the structures. pIC50: −log10 of the molar value.

Here are results for 28 compounds from patent US20260184687A1, “DIHYDROINDENE DERIVATIVES AS MALT1 INHIBITORS” (C4X Discovery Limited, priority 2022, published 2026).

In experiment [1] the test system is IL-2 release from stimulated Jurkat cells. The experiment can be described thus: Human IL-2 Release Phenotypic Assay (Assay 3). The format is cell-based. As to conditions: Jurkat cells (clone E6-1), 200 ng/mL PMA + 300 ng/mL ionomycin, IL-2 by ELISA. A digest of the protocol:
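Jurkat E6-1 cells in RPMI1640/10% FBS were seeded at 50 000 cells/well and incubated overnight at 37° C. Half-log compound dilutions (0.5% final DMSO) were added for 30 min, then cells were stimulated with 200 ng/mL PMA + 300 ng/mL ionomycin for 48 h. IC50 came from a 4-parameter non-linear regression fit.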

The target of experiment [2] is MALT1-GS-Ub (6-His-hMALT-1 residues 339-715 fused to ubiquitin) (Homo sapiens, UniProt Q9UDY8). The experiment can be described thus: biochemical.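 Further: in vitro MALT1 protease assay: enzyme preincubated with compound 30 min at room temperature, then cleavage of fluorogenic Ac-LVSR-AMC substrate (100 µM) followed by fluorescence every 15 min.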
MALT1-GS-Ub (6-His-hMALT-1 residues 339-715 fused to ubiquitin), sequence (Q9UDY8 with tags, fused parts or gaps limits assumed): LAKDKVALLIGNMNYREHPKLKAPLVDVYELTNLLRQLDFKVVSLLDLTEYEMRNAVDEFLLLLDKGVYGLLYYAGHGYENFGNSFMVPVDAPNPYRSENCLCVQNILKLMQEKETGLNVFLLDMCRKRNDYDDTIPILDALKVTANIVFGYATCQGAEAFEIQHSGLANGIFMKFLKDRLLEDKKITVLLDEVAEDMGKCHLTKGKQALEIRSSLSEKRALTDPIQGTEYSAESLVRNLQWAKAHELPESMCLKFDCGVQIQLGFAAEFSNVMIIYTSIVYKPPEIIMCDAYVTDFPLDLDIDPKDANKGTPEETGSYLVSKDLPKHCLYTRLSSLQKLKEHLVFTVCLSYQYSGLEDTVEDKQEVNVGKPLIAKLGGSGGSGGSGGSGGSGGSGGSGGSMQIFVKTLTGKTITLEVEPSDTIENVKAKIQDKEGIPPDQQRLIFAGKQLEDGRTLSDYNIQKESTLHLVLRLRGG
Another experiment concerns the target T1, FL hMALT1 enzyme (Homo sapiens, UniProt Q9UDY8).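 Further: Cell-free protease assay: enzyme preincubated with compound 30 min at room temperature, then cleavage of fluorogenic Ac-LVSR-AMC substrate (100 µM) tracked by fluorescence (ex 360/em 460 nm).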
T1 sequence (Q9UDY8 1-824): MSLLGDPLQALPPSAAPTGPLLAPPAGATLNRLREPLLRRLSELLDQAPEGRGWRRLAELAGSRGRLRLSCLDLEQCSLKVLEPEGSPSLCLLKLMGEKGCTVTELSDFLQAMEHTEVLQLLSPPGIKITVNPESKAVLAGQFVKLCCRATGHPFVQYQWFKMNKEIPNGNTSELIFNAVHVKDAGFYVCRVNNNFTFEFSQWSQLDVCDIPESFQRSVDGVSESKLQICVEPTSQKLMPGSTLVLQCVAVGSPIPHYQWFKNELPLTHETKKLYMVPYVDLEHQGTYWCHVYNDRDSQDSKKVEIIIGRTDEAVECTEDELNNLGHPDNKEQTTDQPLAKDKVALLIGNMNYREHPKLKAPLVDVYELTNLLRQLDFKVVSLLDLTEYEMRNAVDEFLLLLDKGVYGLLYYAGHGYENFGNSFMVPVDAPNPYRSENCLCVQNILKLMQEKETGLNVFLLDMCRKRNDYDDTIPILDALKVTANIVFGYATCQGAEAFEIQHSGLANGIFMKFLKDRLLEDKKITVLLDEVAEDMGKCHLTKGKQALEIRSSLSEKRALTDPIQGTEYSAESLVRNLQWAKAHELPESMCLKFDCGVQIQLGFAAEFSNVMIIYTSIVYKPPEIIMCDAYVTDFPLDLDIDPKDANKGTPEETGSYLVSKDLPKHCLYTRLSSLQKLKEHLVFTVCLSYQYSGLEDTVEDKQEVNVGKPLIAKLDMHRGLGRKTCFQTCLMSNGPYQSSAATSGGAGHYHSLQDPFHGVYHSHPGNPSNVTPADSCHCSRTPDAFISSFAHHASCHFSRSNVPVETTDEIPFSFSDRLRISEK
The experiment can be described thus: biochemical.

`CN(C(=O)N1CCS(=O)(=O)CC1)[C@@H](c1ccc(NC2Cc3ccccc3C2(C)C)cc1)C(F)(F)F` (single isomer, unassigned) [Example 15]: the negative logarithm of the IC50 (pIC50) in experiment [1] (48 hours) is 5.51; in experiment [2], 6.54; at FL hMALT1 enzyme it was 6.38.
Regarding `CNC(=O)N1CC(C(=O)N(C)[C@@H](c2ccc(NC3Cc4ccccc4C3(C)C)cc2)C(F)(F)F)C1` (single isomer, unassigned) [Example 73], the pIC50 was 6.43 in experiment [1] (48 hours), 6.38 in experiment [2] and 8.15 against FL hMALT1 enzyme.
The corresponding values for `CN(C(=O)CN1CC(=O)NC1=O)[C@@H](c1ccc(NC2Cc3ccccc3C2(C)C)cc1)C(F)(F)F` (single isomer, unassigned) [Example 67] are 5.22, 6.35 and 7.11.
The corresponding values for `CN1CC(C(=O)N(C)C(c2ccc(NC3Cc4ccccc4C3(C)C)nc2)C(F)(F)F)C1` (single isomer, unassigned) [Example 95, N-(1-(6-((1,1-Dimethyl-2,3-dihydro-1H-inden-2-yl)amino)pyridin-3-yl)-2,2,2-trifluoroethyl)-N,1-dimethylazetidine-3-carboxamide] are 5.89, 6.24 and 6.19.
With `CN(C(=O)CN1CCCC1=O)[C@@H](c1ccc(NC2Cc3ccccc3C2(C)C)cc1)C(F)(F)F` (single isomer, unassigned) [Example 45], the pIC50 in experiment [1] (Homo sapiens, Jurkat, 48 h) is 6.14; in experiment [2], 6.62; at FL hMALT1 enzyme it was 6.74.
`CN(C(=O)c1cnco1)[C@@H](c1ccc(NC2Cc3ccccc3C2(C)C)cc1)C(F)(F)F` (single isomer, unassigned) [Example 5]: the pIC50 is 5.65 in experiment [1] (48 hours), 6.85 in experiment [2] and 6.60 against FL hMALT1 enzyme.
Take `CN(C(=O)C1CNC1)C(c1ccc(NC2Cc3ccccc3C2(C)C)cn1)C(F)(F)F` (single isomer, unassigned) [Example 85, N-(1-(5-((1,1-Dimethyl-2,3-dihydro-1H-inden-2-yl)amino)pyridin-2-yl)-2,2,2-trifluoroethyl)-N-methylazetidine-3-carboxamide]: the negative-log IC50 (pIC50) in experiment [1] (48 hours) was 5.71; in experiment [2], 6.21; against FL hMALT1 enzyme it was 6.21.
On to `CC(=O)NCC(=O)N(C)[C@@H](c1ccc(NC2Cc3ccccc3C2(C)C)cc1)C(F)(F)F` (single isomer, unassigned) [Example 39], for which the pIC50 was 5.44 in experiment [1] (48 hours), 6.62 in experiment [2] and 6.77 at FL hMALT1 enzyme.
Taken in the same sequence, the figures for `CN(C(=O)CCN1CCCC1=O)[C@@H](c1ccc(NC2Cc3ccccc3C2(C)C)cc1)C(F)(F)F` (single isomer, unassigned) [Example 47] were 5.63, 6.77 and 6.96.
`CN(C(=O)c1cc[nH]c(=O)c1)[C@@H](c1ccc(NC2Cc3ccccc3C2(C)C)cc1)C(F)(F)F` (single isomer, unassigned) [Example 20]: the pIC50 was 6.29 in experiment [1] (Homo sapiens, Jurkat, 48 h); 6.68 in experiment [2]; 6.62 at FL hMALT1 enzyme.
With `CNC(=O)N1CC(C(=O)N(C)[C@@H](c2ccc(NC3Cc4ccccc4C3(C)C)cc2)C(F)(F)F)C1` (single isomer, unassigned) [Example 74], the pIC50 in experiment [1] (48 hours) is 6.74; in experiment [2] it was 6.49; at FL hMALT1 enzyme, 7.74.
The corresponding values for `CC1(C)c2ccccc2CC1Nc1ccc([C@H](NC(=O)C2CCS(=O)(=O)CC2)C(F)(F)F)cc1` (single isomer, unassigned) [Example 82] are 5.52, 6.33 and 6.34.
In the case of `CN(C(=O)C1CCS(=O)(=O)CC1)[C@@H](c1ccc(NC2Cc3ccc(Cl)cc3C2(C)C)cc1)C(F)(F)F` (single isomer, unassigned) [Example 151], the pIC50 in experiment [1] (48 hours) is 7.01; in experiment [2], 6.92; on FL hMALT1 enzyme it was 8.40.
Regarding `CN1CC(C(=O)N(C)[C@@H](c2ccc(NC3Cc4ccccc4C3(C)C)cc2)C(F)(F)F)C1` (single isomer, unassigned) [Example 75], the negative-log IC50 (pIC50) in experiment [1] (Homo sapiens, Jurkat, 48 h) was 6.09; in experiment [2], 6.60; against FL hMALT1 enzyme, 6.43.
Turning to `CC(=O)N1CC(OC(=O)N(C)[C@@H](c2ccc(NC3Cc4ccccc4C3(C)C)cc2)C(F)(F)F)C1` (single isomer, unassigned) [Example 58], the values for the pIC50 (in experiment [1] (48 hours); in experiment [2]; on FL hMALT1 enzyme) were 5.99, 6.72 and 7.42, respectively.
Turning to `CN(C(=O)C1CCS(=O)(=O)CC1)[C@@H](c1ccc(NC2Cc3ccccc3C2(C)C)cn1)C(F)(F)F` (single isomer, unassigned) [Example 78], the results for the pIC50 (in experiment [1] (48 hours); in experiment [2]; against FL hMALT1 enzyme) were 6.81, 6.55 and 7.74, respectively.
The corresponding values for `CN(C(=O)C1CNC1)C(c1ccc(NC2Cc3ccccc3C2(C)C)cn1)C(F)(F)F` (single isomer, unassigned) [Example 84, N-(1-(5-((1,1-Dimethyl-2,3-dihydro-1H-inden-2-yl)amino)pyridin-2-yl)-2,2,2-trifluoroethyl)-N-methylazetidine-3-carboxamide] are 6.19, 6.49 and 6.74.
Taken in the same sequence, the figures for `CC(=O)N1CC(OC(=O)N(C)[C@@H](c2ccc(NC3Cc4ccccc4C3(C)C)cc2)C(F)(F)F)C1` (single isomer, unassigned) [Example 57] were 5.43, 6.80 and 7.04.
As to `CN(C(=O)C1CN(S(C)(=O)=O)C1)[C@@H](c1ccc(NC2Cc3ccccc3C2(C)C)cc1)C(F)(F)F` (single isomer, unassigned) [Example 69], the results for the pIC50 (in experiment [1] (48 hours); in experiment [2]; on FL hMALT1 enzyme) were 6.04, 6.55 and 7.10, respectively.
In the case of `CN(C(=O)N1CCC(O)CC1)[C@@H](c1ccc(NC2Cc3ccccc3C2(C)C)cc1)C(F)(F)F` (single isomer, unassigned) [Example 22], the negative logarithm of the IC50 (pIC50) in experiment [1] (Homo sapiens, Jurkat, 48 h) was 5.76; in experiment [2] it was 6.54; against FL hMALT1 enzyme it was 6.35.
Regarding `CN(C(=O)C1CCS(=O)(=O)CC1)[C@@H](c1ccc(NC2Cc3cc(Cl)ccc3C2(C)C)cc1)C(F)(F)F` (single isomer, unassigned) [Example 153], the pIC50 in experiment [1] (48 hours) was 6.92; in experiment [2] it was 6.72; at FL hMALT1 enzyme, 7.17.
`CC(=O)N1CC(C)(C(=O)N(C)[C@@H](c2ccc(NC3Cc4ccccc4C3(C)C)cc2)C(F)(F)F)C1` (single isomer, unassigned) [Example 41]: the pIC50 is 5.98 in experiment [1] (Homo sapiens, Jurkat, 48 h); 6.66 in experiment [2]; 7.72 against FL hMALT1 enzyme.
With `CN(C(=O)CCN1CCCC1=O)[C@@H](c1ccc(NC2Cc3ccccc3C2(C)C)cc1)C(F)(F)F` (single isomer, unassigned) [Example 48], the figures for the pIC50 (in experiment [1] (48 hours); in experiment [2]; against FL hMALT1 enzyme) were 5.94, 6.85 and 7.77, respectively.
Taken in the same sequence, the figures for `CC(=O)N1CC(F)(C(=O)N(C)[C@@H](c2ccc(NC3Cc4ccccc4C3(C)C)cc2)C(F)(F)F)C1` (single isomer, unassigned) [Example 43] were 5.39, 6.82 and 7.21.
On to `CC(=O)N1CC(F)(C(=O)N(C)[C@@H](c2ccc(NC3Cc4ccccc4C3(C)C)cc2)C(F)(F)F)C1` (single isomer, unassigned) [Example 44], for which the pIC50 in experiment [1] (48 hours) was 6.11; in experiment [2] it was 6.74; at FL hMALT1 enzyme, 7.68.
In the case of `COCCC(=O)N(C)[C@@H](c1ccc(NC2Cc3ccccc3C2(C)C)cc1)C(F)(F)F` (single isomer, unassigned) [Example 32], the pIC50 in experiment [1] (48 hours) was 5.25; in experiment [2] it was 6.70; at FL hMALT1 enzyme, 6.89.
`CN(C(=O)N1CCOCC1)[C@@H](c1ccc(N[C@H]2Cc3ccccc3C2(C)C)cc1)C(F)(F)F` (single isomer, unassigned) [Example 12]: the pIC50 in experiment [1] (Homo sapiens, Jurkat, 48 h) is 6.31; in experiment [2], 6.74; against FL hMALT1 enzyme, 6.54.
Regarding `CN(C(=O)CO)[C@@H](c1ccc(NC2Cc3ccccc3C2(C)C)cc1)C(F)(F)F` (single isomer, unassigned) [Example 31], the pIC50 in experiment [1] (Homo sapiens, Jurkat, 48 h) is 5.92; in experiment [2], 6.89; on FL hMALT1 enzyme it was 7.30.
